Experiments:
NMDA receptors = details: read-out: EC50 as positive allosteric modulator of NMDA receptors; cited from earlier work
[1] = system: rat cortical spreading depression (CSD) model; assay: rat cortical spreading depression (CSD) model, KCl-induced; assay type: in vivo; details: female Wistar rats, 10 mg/kg orally once daily for 6 days
Experimental: The following Example provides data from a rat cortical spreading depression (CSD) model, which recapitulates symptoms seen in migraine patients with aura. (2R)-1-((1-(4-(4-Methyl-1H-pyrazol-1-yl)pyridin-3-yl)piperidin-4-yl)carbonyl)pyrrolidine-2-carbonitrile was tested in the CSD model for its potential effects on hyperperfusion events and cortical direct current (DC)-potentials. Adult female Wistar rats from Charles River Germany were used for the experiment. Animals were housed at a standard temperature (22±1° C.) and in a light-controlled environment (lights on from 7 am to 8 pm) with ad libitum access to food and water. Rats were orally treated with vehicle (0.5% methylcellulose in water) or (2R)-1-((1-(4-(4-methyl-1H-pyrazol-1-yl)pyridin-3-yl)piperidin-4-yl)carbonyl)pyrrolidine-2-carbonitrile at the dose of 10 mg/kg once daily for 6 days (n=8). One hour after the last dosing, rats were anesthetized with 5% isoflurane (in 70% N2O and 30% O2; flow 300 ml/min), and placed in a stereotactic frame.
During the operation and CSD the concentration of anesthetic was reduced to 1-1.5%. The rectal temperature was maintained at 37.0±1.0° C. with a homeothermic blanket system. The skin was opened by a medial incision and retracted laterally. Three burr holes were drilled under saline cooling over the right hemisphere at the following coordinates (mm from bregma): (1) posterior 4.5, lateral, 2.0 (occipital cortex): KCl application site; (2) posterior 0.5, lateral 2.0 (parietal cortex) (3) anterior 2, lateral 2 (frontal cortex). A laser-Doppler flow probe (Oxyflow, Oxford Optronics, UK) to monitor cerebral blood flow (CBF) was placed in the parietal cortex burr holes on the intact dura. An invasive Ag/AgCl electrode for measuring DC potential shifts was placed in the frontal cortex burr holes on the intact dura. For the DC-potential measurement, a reference electrode was fixed in the neck. […] The number of KCl-induced CSDs was checked over the period of 2 hours and the number of CBF changes was also measured. […]

[2] = system: mouse model of chronic post-ischemic pain; assay: mouse model of chronic post-ischemic pain (CRPS model), von Frey paw withdraw threshold; assay type: in vivo; details: 30 mg/kg orally once daily for 7 days
Experimental: The following Example provides data from a mouse model of chronic post-ischemic pain, which recapitulates symptoms seen in CRPS patients with peripheral tissue injury and subsequent progression of allodynia. (4-Benzyl-4-hydroxypiperidin-1-yl) (2,4′-bipyridin-3-yl)methanone was tested in the CRPS model for its potential effects on pain. Following 3-hour ischemia and 0.5-hour reperfusion given at a hind limb, mice (C57) were orally treated with (4-benzyl-4-hydroxypiperidin-1-yl) (2,4′-bipyridin-3-yl)methanone at the dose of 30 mg/kg once daily for 7 days (n=8). Paw withdraw threshold was evaluated with von Frey filaments as a behavioral index of mechanical allodynia at 0 h for the base line, 6 h, Days 1, 2, 4 and 7. The cumulative score of paw withdraw threshold over the study period was 17.7 in the sham-treated control group without ischemia/reperfusion injury. In the groups given ischemic injury, the cumulative score was 9.0 and 16.2 for the vehicle control and (4-benzyl-4-hydroxypiperidin-1-yl) (2,4′-bipyridin-3-yl)methanone group, respectively.

CC(C)[C@@H](O)CC[C@@H](C)[C@H]1CC[C@H]2[C@@H]3CC=C4C[C@@H](O)CC[C@]4(C)[C@H]3CC[C@]12C [24(S)-hydroxycholesterol]
EC50 (NMDA receptors): 1200 nM

Cc1cnn(-c2ccncc2N2CCC(C(=O)N3CCC[C@@H]3C#N)CC2)c1 [(2R)-1-((1-(4-(4-methyl-1H-pyrazol-1-yl)pyridin-3-yl)piperidin-4-yl)carbonyl)pyrrolidine-2-carbonitrile]
CSD events (effect of treatment) [1]: markedly reduced | average number of KCl-induced CSDs ([1]; counted over 2 hours, vehicle 10.00): 4.75 | average number of CBF changes ([1]; over 2 hours, vehicle 22.75): 15.75

O=C(c1cccnc1-c1ccncc1)N1CCC(O)(Cc2ccccc2)CC1 [(4-benzyl-4-hydroxypiperidin-1-yl) (2,4′-bipyridin-3-yl)methanone]
allodynia threshold (effect of treatment) ([2]; C57 mice with ischemic injury): markedly increased | cumulative score of paw withdraw threshold over the study period ([2]; C57 mice, 3-hour ischemia and 0.5-hour reperfusion at a hind limb, von Frey filaments, vehicle 9.0, sham 17.7): 16.2

From patent publication US20210346366A1, “CH24H INHIBITORS FOR PAIN USE” (Takeda Pharmaceutical Company Limited, priority 2018, published 2021)
